Legend:
[1] = logP by HPLC on reversed-phase column (C 18), EEC Directive 79/B31 Annex V.A8, methods A and B; assay type: physicochemical; conditions: linear gradient 10% to 90% acetonitrile; for chromatographic logP: reversed-phase HPLC column (C 18)
Protocol: Calibration was carried out using unbranched alkan-2-ones (having 3 to 16 carbon atoms) with known logP values (determination of the logP values by the retention times using linear interpolation between two successive alkanones).

Podosphaera leucotricha = test: In vivo test on Podosphaera leucotricha (apple mildew), preventive spray; conditions: 240 h, apple young plants, evaluated 10 days after inoculation, good (at least 70%) to total protection
Protocol: In Vivo Test on Podosphaera leucotncha (Apple Mildew) [table] To produce a suitable preparation of active compound, 1 part by weight of active compound is mixed with the stated amounts of solvent and emulsifier, and the concentrate is diluted with water to the desired concentration. Young plants are sprayed with the preparation of active compound at the stated rate of application. After the spray coating has dried on, the plants are inoculated with an aqueous spore suspension of the causal agent of apple mildew (Podosphaera leucobicha). The plants are then placed in a greenhouse at approximately 23° C. and a relative atmospheric humidity of approximately 70%. The test is evaluated 10 days after the inoculation. Under these conditions, good (at least 70%) to total protection is observed at a dose of 100 ppm with the following compounds: 104, 160, 176, 177, 180, 186, 187, 188, 192, 194, 196, 198, 203, 204, 205, 207, 209, 210, 211, 212, 213, 218 and 446.

Alternaria solani = test: In vivo test on Alternaria solani (tomato leaf spot), preventive spray; conditions: 168 h, tomato young plants, evaluated 7 days after inoculation, good (at least 70%) to total protection
Protocol: In Vivo Test on Alternaria Solani (Tomato Leaf Spot) [table] To produce a suitable preparation of active compound, 1 part by weight of active compound is mixed with the stated amounts of solvent and emulsifier, and the concentrate is diluted with water to the desired concentration. Young plants are sprayed with the preparation of active compound at the stated rate of application. After the spray coating has dried on, the plants are inoculated with an aqueous spore suspension of Alternaria solani. The plants remain for one day in an incubation cabinet at approximately 20° C. and a relative atmospheric humidity of 100%. Then the plants are placed in an incubation cabinet at approximately 20° C. and a relative atmospheric humidity of 96%. The test is evaluated 7 days after the inoculation. Under these conditions, good (at least 70%) to total protection is observed at a dose of 500 ppm with the following compounds 110, 143, 160, 175, 176, 178, 179, 180, 186, 187, 189, 192, 196, 198, 203, 204, 205, 209, 210, 212, 214, 215 and 652.

Pyrenophora teres = test: In vivo test on Pyrenophora teres (barley net blotch); conditions: 288 h, barley plants (Express variety), grading 12 days after contamination, good (at least 70%) or total protection
Protocol: In Vivo Test on Pyrenophore teres (Barley Net Blotch)
(§1) The active ingredients tested are prepared by homogenisation in a mixture of acetone/tween/DMSO, then diluted with water to obtain the desired active material concentration. Barley plants (Express variety) in starter cups, sown on a 50/50 peat soil-pozzolana substrate and grown at 12° C., are treated at the 1-leaf stage (10 cm tall) by spraying with the active ingredient prepared as described above. Plants, used as controls, are treated with the mixture of acetone/tween/DMSO/water not containing the active material.
After 24 hours, the plants are contaminated by spraying them with an aqueous suspension of Pyrenophora teres spores (12,000 spores per ml). The spores are collected from a 12-day-old culture. The contaminated barley plants are incubated for 24 hours at about 20° C. and at 100% relative humidity, and then for 12 days at 80% relative humidity.

[2] = system: Erysiphe graminis f.sp. horde; test: In vivo test on Erysiphe graminis (barley mildew), preventive spray; conditions: Blumeria graminis, 168 h, barley young plants, evaluated 7 days after inoculation, good (at least 70%) to total protection
Protocol: In Vivo Test on Erysiphe Graminis (Barley Mildew) [table] To produce a suitable preparation of active compound, 1 part by weight of active compound or active compound combination is mixed with the stated amounts of solvent and emulsifier, and the concentrate is diluted with water to the desired concentration. Young plants are sprayed with the preparation of active compound or active compound combination at the stated rate of application. After the spray coating has dried on, the plants are dusted with spores of Erysiphe graminis f.sp. horde. The plants are placed in a greenhouse at a temperature of approximately 20° C. and a relative atmospheric humidity of approximately 80% to promote the development of mildew pustules. The test is evaluated 7 days after the inoculation. Under these conditions, good (at least 70%) to total protection is observed at a dose of 1000 ppm with the following compounds: 104, 160, 177, 178, 186, 192, 194, 203, 204, 205, 207, 210, 212, 213 and 435.

Puccinia recondita = test: In vivo test on Puccinia recondita f. sp. tritici (wheat brown rust); conditions: 240 h, wheat plants (Scipion variety), grading 10 days after contamination, good (at least 70%) or total protection
Protocol: In vivo Test on Puccinia reconditef. Sp. tritici (Wheat Brown Rust)
as §1, with “Wheat” for “Barley”, “(Scipion” for “(Express”, “on” for “on a”
After 24 hours, the plants are contaminated by spraying the leaves with an aqueous suspension of Puccinia recondita spores (100,000 spores per ml). The spores are collected from a 10-day-old contaminated wheat and are suspended in water containing 2.5 ml/of tween 80 10%. The contaminated wheat plants are incubated for 24 hours at 20° C. and at 100% relative humidity, and then for 10 days at 20° C. and at 70% relative humidity. Grading is carried out 10 days after the contamination, in comparison with the control plants.

[3] = HPLC reversed-phase C 18, method A: 43° C., 0.1% aqueous phosphoric acid, acetonitrile
[4] = LogP method A: HPLC reversed-phase C 18, 43° C., 0.1% aqueous phosphoric acid / acetonitrile

chromatographic logP [1, 3] | SMILES | pest or weed control at 100 ppm (Podosphaera leucotricha) | pest or weed control at 500 ppm (Alternaria solani) | pest or weed control at 1000 ppm [2] | other results
2.43 | Cc1ccccc1S(=O)(=O)N(C(=O)c1c(C)nn(C)c1F)C1CC1 [Compound 196] | ≥ 70% | ≥ 70% |  | 
3.05 | Cc1cc(C)c(S(=O)(=O)N(C(=O)c2c(C)nn(C)c2F)C2CC2)c(C)c1 [Compound 189] |  | ≥ 70% |  | 
2.77 | Cc1nn(C)c(F)c1C(=O)N(C1CC1)S(=O)(=O)c1cccc(O)c1O [Compound 210] | ≥ 70% | ≥ 70% | ≥ 70% | pest or weed control at 500 ppm (Pyrenophora teres): ≥ 70%
2.78 | Cc1ccc(C)c(S(=O)(=O)N(C(=O)c2c(C)nn(C)c2F)C2CC2)c1 [Compound 198] | ≥ 70% | ≥ 70% |  | 
2.17 | Cc1nn(C)c(C)c1C(=O)N(C1CC1)S(=O)(=O)c1ccccc1O [Compound 215] |  | ≥ 70% |  | 
2.82 | Cc1nn(C)c(F)c1C(=O)N(C1CC1)S(=O)(=O)c1cccc(O)c1 [Compound 176] | ≥ 70% | ≥ 70% |  | 
 | Cc1nn(C)cc1C(=O)N(C1CC1)S(=O)(=O)c1ccccc1O [Compound 214] |  | ≥ 70% |  | LogP [1, 3]: 2.31
 | Cn1nc(C(F)F)c(C(=O)N(C2CC2)S(=O)(=O)c2cccc(O)c2O)c1F [Compound 104] | ≥ 70% |  | ≥ 70% | pest or weed control at 500 ppm (Pyrenophora teres): ≥ 70%; pest or weed control at 500 ppm (Puccinia recondita): ≥ 70%; chromatographic logP ([1]; HPLC reversed-phase C 18, method B: 40° C., 0.1% aqueous formic acid and acetonitrile): 3.2
3.03 | Cc1nn(C)c(F)c1C(=O)N(C1CC1)S(=O)(=O)c1cccc(C(F)(F)F)c1 [Compound 177] | ≥ 70% |  | ≥ 70% | 
2.37 | Cc1nn(C)c(F)c1C(=O)N(C1CC1)S(=O)(=O)c1ccccc1Br [Compound 204] | ≥ 70% | ≥ 70% | ≥ 70% | 
2.61 | Cc1cccc(S(=O)(=O)N(C(=O)c2c(C)nn(C)c2F)C2CC2)c1 [Compound 175] |  | ≥ 70% |  | 
 | CC1=C(C(=O)N(C2CC2)S(=O)(=O)c2ccccc2O)OCCS1 [Compound 652] |  | ≥ 70% |  | chromatographic logP [1, 4]: 2.78
 | Cc1nn(C)c(F)c1C(=O)N(C1CC1)S(=O)(=O)c1cc(O)sc1O [Compound 435] |  |  | ≥ 70% | chromatographic logP [1, 4]: 3.16
2.34 | Cc1nn(C)c(F)c1C(=O)N(C1CC1)S(=O)(=O)c1ccccc1O [Compound 180] | ≥ 70% | ≥ 70% |  | pest or weed control at 500 ppm (Pyrenophora teres): ≥ 70%
2.94 | Cc1nn(C)c(F)c1C(=O)N(C1CC1)S(=O)(=O)c1ccc(O)cc1O [Compound 186] | ≥ 70% | ≥ 70% | ≥ 70% | 
 | COc1nn(C)cc1C(=O)N(C1CC1)S(=O)(=O)c1ccc(Oc2ccccc2)cc1 [Compound 143] |  | ≥ 70% |  | 
3.55 | Cc1nn(C)c(F)c1C(=O)N(C1CC1)S(=O)(=O)c1ccc(C(C)(C)C)cc1 [Compound 192] | ≥ 70% | ≥ 70% | ≥ 70% | 
2.6 | Cc1nn(C)c(F)c1C(=O)N(C1CC1)S(=O)(=O)c1ccccc1C(F)(F)F [Compound 207] | ≥ 70% |  | ≥ 70% | 
2.46 | Cc1nn(C)c(F)c1C(=O)N(C1CC1)S(=O)(=O)c1ccc(F)cc1 [Compound 179] |  | ≥ 70% |  | 
2.25 | Cc1nn(C)c(F)c1C(=O)N(C1CC1)S(=O)(=O)c1ccccc1F [Compound 205] | ≥ 70% | ≥ 70% | ≥ 70% | 
3.5 | Cc1nn(C)c(F)c1C(=O)N(C1CC1)S(=O)(=O)c1ccc(O)c(C(F)(F)F)c1 [Compound 194] | ≥ 70% |  | ≥ 70% | 
3.39 | Cc1nn(C)c(F)c1C(=O)N(C1CC1)S(=O)(=O)c1ccc(-c2ccccc2)cc1 [Compound 209] | ≥ 70% | ≥ 70% |  | 
3.35 | Cc1nn(C)c(F)c1C(=O)N(C1CC1)S(=O)(=O)c1ccc(O)c(O)c1 [Compound 178] |  | ≥ 70% | ≥ 70% | 
3.35 | Cc1nn(C)c(F)c1C(=O)N(C1CC1)S(=O)(=O)c1ccc(O)c(O)c1O [Compound 212] | ≥ 70% | ≥ 70% | ≥ 70% | 
3.42 | Cc1nn(C)c(F)c1C(=O)N(C1CC1)S(=O)(=O)c1ccc(Oc2ccccc2)cc1 [Compound 187] | ≥ 70% | ≥ 70% |  | 
2.75 | Cc1nn(C)c(F)c1C(=O)N(C1CC1)S(=O)(=O)c1ccccc1OC(F)(F)F [Compound 203] | ≥ 70% | ≥ 70% | ≥ 70% | 
3.19 | Cc1nn(C)c(F)c1C(=O)N(C1CC1)S(=O)(=O)c1ccc(C(F)(F)F)cc1O [Compound 213] | ≥ 70% |  | ≥ 70% | 

Reference: patent US7932283B2, “Fungicide N-cyclopropyl-sulfonylamide derivatives” (Bayer Cropscience AG, priority 2006, dated 2011)
